According to US10351500B2, “Method of using of dihydro-resveratrol or its stilbenoid derivatives and/or chemical variants as antimicrobial agents” (Hong Kong Baptist University, priority 2015, dated 2019):

Tests used:
[1] = tested on: HCT-116 human colorectal carcinoma xenograft tumor; assay: HCT-116 nude mouse xenograft model; format: in vivo, BALB/c nude mice; conditions: i.p. every other day, 5-FU 25 mg/kg, D-res 100 mg/kg
Description: All animal studies were approved and performed according to Animal Care and Use Guidelines of the Animal Ethics Committee at Hong Kong Baptist University. BALB/c nude mice, SPF class, male, 6-8 weeks old, were purchased from BioLASCO, Taiwan. Before the xenograft experiment, the mice were acclimatized to SPF class laboratory conditions for a week.
HCT-116 cells in logarithmic growth phase were collected by trypsinization. After centrifugation and rinsing, cells were re-suspended in serum-free DMEM medium at 3×10^7 cells/mL. Nude mice were skin disinfected with 75% medical ethanol, subcutaneously injected with 100 μL of the HCT-116 cell suspension using a 25-G syringe to their left flank. The same procedure was repeated for the tumor cell injection to the right flank.
Seven days after tumor cell injection, 24 mice with tumor volumes of 32 mm^3 to 178 mm^3 were randomly assigned into 3 groups; the average initial tumor volumes in each group of mice were 78.04±7.76 mm^3 (vehicle, 8 mice), 78.76±9.40 mm^3 (5-FU, 8 mice), 78.01±7.75 mm^3 (D-res, 8 mice) respectively.
Vehicle solution: 2.5% Ethanol and Cremphor EL (1:1 v/v) dissolved in physiological saline.
5-FU solution: 5-FU powder was dissolved in 2.5% Ethanol and Cremphor EL to a concentration of 5 mg/mL.
D-res solution: Dihydro-resveratrol powder was dissolved in 2.5% Ethanol and Cremphor EL solution to a concentration of 20 mg/mL.
Vehicle group (n=8): 2.5% Ethanol and Cremphor EL solution was intraperitoneally injected every other day for 21 days.
5-FU group (n=8): 5-FU solution was given to mice at 25 mg/kg by intraperitoneal injection every other day for 21 days.
D-res group (n=8): D-res solution was given to mice at 100 mg/kg by intraperitoneal injection every other day for 21 days. This is equivalent to a dosage of no less than 8.13 mg/kg of bodily weight in human.

[2] = tested on: Trichophyton rubrum; assay: anti-fungal growth inhibition, T. rubrum; format: cell-based; conditions: T. rubrum; for inhibition at 25 µM / inhibition at 50 µM / inhibition at 100 µM: Trichophyton rubrum, 168 h, one week, 30° C., OD 510 nm; for inhibition at 25 µM: read-out: Inhibition rate (25 μM); for inhibition at 50 µM: read-out: Inhibition rate (50 μM); for inhibition at 100 µM: read-out: Inhibition rate (100 μM)
Method: (§1) Evaluation of anti-fungal activity. In a single well of the 96-well microplate, 10 μL of the testing compound is added into 190 μL of growth medium (Difco™ YM) containing an overnight culture of Trichophyton rubrum or Trichophyton mentagrophytes at a density of approximately 5×10^5 CFU. The testing compounds include dihydro-resveratrol and DR1 to DR11. Wells incubated with 10 μL 0.5% DMSO only (i.e. no testing compound) are served as the experimental control of fungal growth whilst those incubated with growth medium only (i.e. no fungi) are served as the negative control. […] The percentage of growth inhibition of T. mentagrophytes by the different concentrations of testing compounds is shown in Table 10 whilst the percentage of growth inhibition of T. rubrum is shown in Table 11. The images of T. mentagrophytes culture are captured post treatment of dihydro-resveratrol (100 μM) and DR8 (100 μM) when compared to the growth of experimental control and negative control (FIG. 30).

[3] = tested on: Trichophyton mentagrophytes; assay: anti-fungal growth inhibition, T. mentagrophytes; format: cell-based; conditions: T. mentagraphytes; for inhibition at 25 µM / inhibition at 50 µM / inhibition at 100 µM: Trichophyton mentagrophytes, 168 h, one week, 30° C., OD 510 nm; for inhibition at 25 µM: read-out: Inhibition rate (25 μM); for inhibition at 50 µM: read-out: Inhibition rate (50 μM); for inhibition at 100 µM: read-out: Inhibition rate (100 μM)
Method: as §1

[4] = tested on: Streptococcus mutans; assay: anti-bacterial growth inhibition, S. mutans; format: cell-based; conditions: S. mutans; for inhibition at 25 µM / inhibition at 50 µM / inhibition at 100 µM: Streptococcus mutans, 10 hours, 30° C., OD 600 nm; for inhibition at 25 µM: read-out: Inhibition rate (25 μM); for inhibition at 50 µM: read-out: Inhibition rate (50 μM); for inhibition at 100 µM: read-out: Inhibition rate (100 μM)
Method: (§2) Evaluation of anti-bacterial activity. In a single well of the 96-well microplate, 10 μL of the testing compound is added into 190 μL of growth medium growth medium (BBL™ Brain Heart Infusion) containing an overnight culture of Streptococcus mutans or Streptococcus sobrinus at a density of approximately 5×10^5 CFU. The testing compounds include dihydro-resveratrol and DR1 to DR11. Wells incubated with 10 μL 0.5% DMSO only (i.e. no testing compound) are served as the experimental control of bacterial growth whilst those incubated with growth medium only (i.e. no bacteria) are served as the negative control. […] The percentage of growth inhibition of S. mutans by the different concentrations of testing compounds is shown in Table 12 whereas the percentage of growth inhibition of S. sobrinus is shown in Table 13. The images of S. mutans culture are captured post treatment of dihydro-resveratrol (100 μM) and DR8 (100 μM) when compared to the growth of experimental control and negative control (FIG. 31).

[5] = tested on: Streptococcus sobrinus; assay: anti-bacterial growth inhibition, S. sobrinus; format: cell-based; conditions: S. sobrinus; for inhibition at 25 µM / inhibition at 50 µM / inhibition at 100 µM: Streptococcus sobrinus, 10 hours, 30° C., OD 600 nm; for inhibition at 25 µM: read-out: Inhibition rate (25 μM); for inhibition at 50 µM: read-out: Inhibition rate (50 μM); for inhibition at 100 µM: read-out: Inhibition rate (100 μM)
Method: as §2

[6] = ABTS radical decolorization assay (antioxidant capacity); format: biochemical; conditions: 15 min, 734 nm

Structure (SMILES) | inhibition at 25 µM [2] | inhibition at 50 µM [2] | inhibition at 100 µM [2] | inhibition at 25 µM [3] | inhibition at 50 µM [3] | inhibition at 100 µM [3] | inhibition at 25 µM [4] | inhibition at 50 µM [4] | inhibition at 100 µM [4] | inhibition at 25 µM [5] | inhibition at 50 µM [5] | inhibition at 100 µM [5] | Trolox equivalent (mg), antioxidant capacity [6] | also measured
O=c1[nH]cc(F)c(=O)[nH]1 [Compound 5-FU, fluorouracil, reference compound] | – | – | – | – | – | – | – | – | – | – | – | – | – | Tumor Volume (mm^3) ([1]; Day 1 (initial)): 78.76 ± 9.40 mm^3; Tumor Volume (mm^3) ([1]; Day 4): 128.05 ± 12.25 mm^3; Tumor Volume (mm^3) ([1]; Day 7): 187.75 ± 21.56 mm^3; Tumor Volume (mm^3) ([1]; Day 10): 286.6 ± 28.89 mm^3; Tumor Volume (mm^3) ([1]; Day 13): 419.1 ± 45.77 mm^3; Tumor Volume (mm^3) ([1]; Day 16): 489.8 ± 160.66 mm^3; Tumor Volume (mm^3) ([1]; Day 19): 514.17 ± 160.66 mm^3; Tumor Volume (mm^3) ([1]; Day 21): 583.6 ± 160.66 mm^3; Tumor Volume (mm^3) ([1]; Day 22): 655.69 ± 160.66 mm^3; Tumor weight ([1]; treated for 21 days): 0.68 ± 0.08 g
CCOC(=O)COc1ccc(CCc2cc(OCC(=O)OCC)cc(OCC(=O)OCC)c2)cc1 [DR1] | 3.25% | 1.15% | 22.6% | 4.33% | 11.2% | 36.4% | 2.31% | 8.55% | 4.78% | 9.96% | 27.7% | 14.2% | 105.736 mg | –
CCCOc1ccc(CCc2cc(OCCC)cc(OCCC)c2)cc1 [DR2] | 14.1% | 18.3% | 37.8% | 4.72% | 9.81% | 33.7% | 0.04% | 3.62% | 3.65% | 6.33% | 19.9% | 19% | 30.178 mg | –
C=CCOc1ccc(CCc2cc(OCC=C)cc(OCC=C)c2)cc1 [DR3] | 4.55% | 4.25% | 22.3% | 4.64% | 4.77% | 20.1% | 4.18% | 2.61% | 7.05% | 11.7% | 24.2% | 21.1% | 119.325 mg | –
CCCC(=O)Oc1ccc(CCc2cc(OC(=O)CCC)cc(OC(=O)CCC)c2)cc1 [DR4] | 11.2% | 16.6% | 36.1% | 6.03% | 10.4% | 32.6% | 6.64% | 3.99% | 6.35% | 7.35% | 20.6% | 18.1% | 94.277 mg | –
O=C(Oc1ccc(CCc2cc(OC(=O)c3ccc(Cl)cc3)cc(OC(=O)c3ccc(Cl)cc3)c2)cc1)c1ccc(Cl)cc1 [DR5] | 0.71% | 4.25% | 5.78% | 3.01% | 6.93% | 14.1% | 2.67% | 8.35% | 2.22% | 12.2% | 26.2% | 18.6% | 0 mg | –
COc1ccc(C(=O)Oc2ccc(CCc3cc(OC(=O)c4ccc(OC)cc4)cc(OC(=O)c4ccc(OC)cc4)c3)cc2)cc1 [DR6] | 5.81% | 2.49% | 20.9% | 3.33% | 8.01% | 21.6% | 6.52% | 4.36% | 5.96% | 5.99% | 15.7% | 7.54% | 0 mg | –
O=C(Oc1ccc(CCc2cc(OC(=O)c3ccccc3)cc(OC(=O)c3ccccc3)c2)cc1)c1ccccc1 [DR7] | 3.06% | 6.17% | 11.6% | 3.79% | 0.44% | 18.6% | 10.1% | 1.55% | 2.48% | 6.33% | 14.2% | 12.5% | 0 mg | –
C=CC(=O)Oc1ccc(CCc2cc(OC(=O)C=C)cc(OC(=O)C=C)c2)cc1 [DR8] | 78.9% | 77.8% | 77.7% | 83.1% | 80.7% | 78.8% | 17.1% | 17.6% | 68% | 22.7% | 43.8% | 79.3% | 15.893 mg | inhibitory effect among the testing compounds ([2]; one-week incubation): highest inhibitory effect; inhibitory effect among the testing compounds ([3]; one-week incubation): highest inhibitory effect; inhibitory effect among the testing compounds ([4]; 10-hour incubation): highest inhibitory effect; inhibitory effect among the testing compounds ([5]; 10-hour incubation): highest inhibitory effect
O=C(Oc1ccc(CCc2cc(OC(=O)C3CCCC3)cc(OC(=O)C3CCCC3)c2)cc1)C1CCCC1 [DR9] | 7.05% | 2.57% | 1.5% | 2.19% | 14.7% | 25.9% | 0.68% | 6.36% | 8.39% | 14.3% | 0.13% | 9.87% | 0 mg | –
